According to patent publication US9643917B2, “Water-soluble propofol derivatives and uses thereof” (JIANGSU NHWALUOKANG PHARMCEUTICAL RESEARCH AND DEVELOPMENT …, priority 2014, dated 2017):
Counter-ions that a name gives are not always drawn. Like-named read-outs stand apart in the source and are kept apart here.

What was measured:
[1] = rat plasma, 37° C., HPLC
Description: (§1) 0.1 ml samples were taken from each of the solutions, added respectively to 1 ml of blood plasma of rabbit (taken from New Zealand white rabbits, treated according to conventional methods, anticoagulated with heparin) or 1 ml of blood plasma of rat (taken from live SD rats, processed according to conventional methods, anti coagulated with heparin), homogeneously mixed, and placed in a thermostatic water bath at 37° C. for incubation with time being recorded. Samples were taken at different time points after the experiment began, and 2 ml of acetonitrile was immediately added. The samples were shaken and centrifuged for 5 min (15,000 rpm), and the supernatant was then taken for HPLC analysis.

physchem = conditions: physiological saline, saline or isotonic
[2] = rabbit plasma, 37° C., HPLC
Description: as §1

CC(C)c1cccc(C(C)C)c1OC(=O)C(F)CCN(C)C (racemic) [E1, Propofol 4-(N,N-dimethyl)amino-2-(R,S)-fluorobutyrate hydrochloride]
Dissociation percent 5 s ([1]; 5 s): 75.1% | Dissociation percent 15 s ([1]; 15 s): 83.2% | Dissociation percent 30 s ([1]; 30 s): 96.7% | solubility (physchem): > 20 mg/mL | Dissociation percent 15 s ([2]; 15 s): 67.5% | Dissociation percent 30 s ([2]; 30 s): 85.5%
